From patent US20040146535A1, “Agent for improving tissue penetration” (priority 2001, published 2004) come the findings set out here.

Series [1] deals with porcine brain microvascular endothelial cells (PBEC). Nature of the series: in vitro. From the text: (§1) Monolayers of primary cultures of porcine brain microvascular endothelial cells (PBEC) represent an in vitro model of the blood-brain barrier. They form monolayers under standard culture conditions both on various collagen coated solid substrates and permeable filters of polycarbonate. The PBEC-monolayer grows on the filter membranes in polarized manner with the apical side representing the capillary lumen but the basolateral side corresponding to brain tissue. As soon as the cells become confluent and build up a tight layer after 7 days PBEC are ready to be used for transport experiments. Due to the formation of functional tight junctions, they show a high transendothelial electrical resistance (TEER) and a tight barrier is created with biological properties similar to the cerebral capillary endothelium
(§2) The PBEC cells were cultivated in M199, which was supplemented with 10% OS, 0.7 mM L^−1 glutamine, 10,000 U·mL^−1 penicillin/streptomycin and 50·μg mL^−1 gentamicin at 37° C., 5% CO2 and saturated humidity. The cells were subcultivated after being detached with trypsin-EDTA solution and sown on Transwell(r) filter inserts (Costar®, Wiesbaden, Germany). The filters consist of polycarbonate with a surface of 1.13 cm2 and a pore diameter of 0.4 μm.
(§3) The growth of the PBEC into confluent, differentiated monolayers on Transwell® filter inserts was verified by measurements of the TEER. […] Fluorescein passes the monolayer paracellularly, whereas propranolol is transported transcellularly. The transport studies were carried out directly on the Transwell® plates. The culture medium M199 in the apical and the basolateral compartment was replaced by serum free medium DME/Ham's F12 supplemented as described for M199 and with 0.2 μg·mL^−1 hydrocortisone one day prior to the experiment. All transport experiments involving cell-cultures were carried out as triplicates. For application of substances on the apical side half of the medium of aspirated, mixed with appropriate stock solution of the substance to be investigated and replaced onto the filter. For qualification of transcellular transport by propranolol, KRB replaced the DME/Ham's F12 as transport buffer. For transport across cell free filter inserts, the complete medium in the apical compartment was removed, mixed with stock solution and replaced into the donor compartment. […] Propranolol was dissolved in KRB (pH 7.4). Samples were collected at 15′, 30′, 45′, 60′, and 90′ from the acceptor, at 0′ and 90′ from the donor compartment and the sample volume was replaced by fresh transport buffer. Prior to the experiment and after the final sampling, the TEER of the monolayers was measured.
(§4) The apparent permeability coefficient (Papp, [cm·s^−1]) was calculated according to equation 1, where dQ/dt is the permeability rate (steady state transport rate, [μg·s^−1]) obtained from the profile of the transported amount of the substrate against the time. A (1.13 cm^2) is the surface of the exposed cell monolayer, m0 the original mass [μg] of the marker substance in the donor compartment (VDonor 0.5 mL). The effective barrier function of the cell-layer is calculated from the apparent permeation coefficient and the permeation coefficient of the cell-free filter according to equation 2. In case that Papp is of higher magnitude than Pfilter, negative permeability coefficients would be calculated. Negative values for Peff are unsensical, thus an unhindered penetration of the cell-layer is to be drawn as conclusion. [formula]
(§5) In order to find an appropriate concentration affecting the permeation across the BBB, four different concentrations of hexyldiglycerol (HexylG2) were checked for their influence on fluorescein permeation and transendothelial electrical resistance.

The nature of series [2]: in vitro. The note with it: pig, permeability coefficient for fluorescein.
Excerpt: as §1, §2, §3, §4, §5

For series [3], the system named is porcine brain microvascular endothelial cells (PBEC). Briefly: Transendothelial electrical resistance (TEER) of PBEC monolayers. The series is classed as cell-based. As to the method:
[…]. Propranolol was dissolved in KRB (pH 7.4).
Since a more distinct effect was expected from in vivo findings, a concentration of 75 mM HexylG2 was selected to be tested with further impermeable markers.

With `OCC(O)CO` [^14C-glycerol, glycerol, reference compound], in series [1] (pig, 90 min), the “Peff, permeability coefficient of paracellular-transport marker” value was determined as 0.96 ×10⁻⁶ cm/s.
As for `O=C1OC2(c3ccc(O)cc3Oc3cc(O)ccc32)c2ccccc21` [fluorescein, reference compound], the results for the apical-to-basolateral permeability (Papp A→B) at 90 min in series [2] (Papp) and in series [2] (Peff) were 0.28 ×10⁻⁶ cm/s and 0.29 ×10⁻⁶ cm/s, respectively.
hexyldiglycerol [HexylG2]: the figures for the “change in TEER” value in series [3] (50 mM HexylG2 (Table 1 experiment)) and in series [3] (75 mM HexylG2 (Table 2 experiment)) were “decrease in TEER” and “complete loss of TEER”, respectively. In series [1] (0.1 mM, 1 mM and 10 mM of HexylG2), the “effect on the tightness of the model barrier (fluorescein permeation and TEER)” value is “no effect”. Besides, in series [1] (50 mM HexylG2 versus w/o), the “enhancement of the penetration (permeability) of fluorescein” value is recorded as “about twofold”. In series [1] (treatment of PBEC monolayers, Example 4), the “monolayer permeability towards glucose, inulin and glycerol” value was “significantly increased”.

In general, Papp A→B refers to how fast a substance crosses the layer from the apical side. High values mean ready permeation, low ones poor permeation.
